Read-outs that look alike come from different tables or passages of the source.
Columns and labels:
[1] = tested on: HIV-1 (RF) in MT-2 cells; assay: microbe, parasite or virus in culture; type: cell-based; settings: Table 2d, class symbols
Experimental: DNA Plasmids and in vitro RNA transcripts:
Plasmid pDAB 72 containing both gag and pol sequences of BH10 (bp 113-1816) cloned into PTZ 19R was prepared according to Erickson-Viitanen et al. AIDS Research and Human Retroviruses 1989, 5, 577. The plasmid was linearized with Bam HI prior to the generation of in vitro RNA transcripts using the Riboprobe Gemini system II kit (Promega) with T7 RNA polymerase. Synthesized RNA was purified by treatment with RNase free DNAse (Promega), phenol-chloroform extraction, and ethanol precipitation. RNA transcripts were dissolved in water, and stored at −70° C. The concentration of RNA was determined from the A260.
Biotinylated capture probes were purified by HPLC after synthesis on an Applied Biosystems (Foster City, Calif.) DNA synthesizer by addition of biotin to the 5′ terminal end of the oligonucleotide, using the biotin-phosphoramidite reagent of Cocuzza, Tet. Lett. 1989, 30, 6287. The gag biotinylated capture probe (5-biotin-[…] 3′) was complementary to nucleotides 889-912 of HXB2 and the pol biotinylated capture probe (5′-biotin-[…] 3′) was complementary to nucleotides 2374-2395 of HXB2. Alkaline phosphatase conjugated oligonucleotides used as reporter probes were prepared by Syngene (San Diego, Calif.). The pol reporter probe (5′ […] 3′) was complementary to nucleotides 2403-2425 of HXB2. The gag reporter probe (5′ […] 3′) was complementary to nucleotides 950-973 of HXB2. All nucleotide positions are those of the GenBank Genetic Sequence Data Bank as accessed through the Genetics Computer Group Sequence Analysis Software Package (Devereau Nucleic Acids Research 1984, 12, 387). The reporter probes were prepared as 0.5μM stocks in 2× SSC (0.3M NaCl, 0.03M sodium citrate), 0.05M Tris pH 8.8, 1 mg/mL BSA. The biotinylated capture probes were prepared as 10 μM stocks in water.
Streptavidin coated plates:
Nunc-immunomodule microtiter plate strips were coated by addition of 200 μL of streptavidin (30 ug/mL, Scripps, La Jolla, Calif.) in freshly prepared 10 mM sodium carbonate (pH 9.6). Plates were incubated overnight at 4° C. Streptavidin solution was aspirated from the wells and a blocking buffer composed of phosphate buffered saline (PBS), 20 mg/mL bovine serum albumin (crystalline, nuclease and protease free, Calbiochem) and 100 mg/mL lactose (Sigma) was added to the plates for 3 hrs at room temperature. Blocking buffer was removed from the wells, which were allowed to dry overnight at room temperature and subsequently stored at 4° C. in zip lock bags with desiccant. For the majority of the compound evaluation experiments, streptavidin coated plates were obtained from Du Pont Biotechnology Systems (Boston, Mass.).
MT-2, CEM, and H9 cells were maintained in RPMI 1640 supplemented with 5% fetal calf serum (FCS), 2 mM L-glutamine and 50 μg/mL gentamycin, all from Gibco. Laboratory strains of HIV-1 (RF, MN and IIIB) were propagated in H9 cells in the same medium. Virus stocks were prepared approximately 1 month after acute infection of H9 cells by clarification of the tissue culture medium and storage of aliquots at −70° C. […] Each aliquot of virus stock used for infection was thawed only once. In some cases, infected H9 cells were shifted to Dulbecco's modified Eagle's medium 3-10 days before collection of virus in order to generate virus stocks in medium with low biotin content. Clinical isolates of HIV that had been passaged once in MT-2 cells were used to infect fresh MT-2 cells in RPMI medium. Three days after infection, cells were pelleted, resuspended and culture continued in Dulbecco's modified Eagle's medium as above. Virus stocks of clinical isolates were prepaid 10-15 days after infection when cytopathic effects were apparent in the culture.

[2] = molecular target: single-chain tethered dimer of HIV protease (Human immunodeficiency virus 1, UniProt P04585); assay: biochemical; type: biochemical; design: fused on or other part: A second copy of the same protease unit is joined to the first by a short peptide tether, giving one polypeptide
Experimental: HIV Protease Inhibition Assay—HPLC Method
Active protease was prepared as described therein by extraction with 67% acetic acid, dilution 33-fold with water, dialysis against water and then against a “refolding buffer” consisting of 20 mM MES, 1 mM dithiothreitol and 10% glycerol. Protease was stored as a stock preparation at 10 uM in refolding buffer.
Substrate: Peptide of sequence: aminobenzoyl-Ala-Thr-His-Gln-Val-Tyr-Phe(NO2)-Val-Arg-Lys-Ala containing p-nitrophenylalanine, was prepared by solid phase synthesis as previously described Cheng et al., op.cit. Stock solutions of 2 mM substrate were prepared in DMSO.
Inhibitory compounds were dissolved in sufficient DMSO to make 3 mM stock solutions. All further dilutions were prepared in “assay buffer”: 1M NaCl, 50 mM MES, pH 5.5, 1 mM EDTA, 1 mM DTT, […] glycerol.
Enzyme reaction: In a 2 ml screw-cap centrifuge tube were added 50 ul protease (final concentration 0.25 nM) and 0.1 ml inhibitory compound (final concentration […]). After 15 min preincubation at room temperature, the reaction was started with the addition of 0.05 ml substrate (final concentration 5 uM). Incubation was carried out at 30 C. for 1 hr. The reaction was stopped with 1 ml 0.1M ammonium hydroxide.
HPLC measurement of product formation: The product (aminobenzoyl-Ala-Thr-His-Gln-Val-Tyr) was separated from substrate on a Pharmacia MonoQ anion exchange column. The injection volume was 0.2 ml. The mobile phases were: A (20 mM trisHCl, pH 9.0, 0.02% sodium Azide, 10% acetonitrile), B (20 mM tris HCl, pH 9.0, 0.02% sodium azide, 0.5M ammonium formate, 10% acetonitrile). The mobile phases were pumped at 1 ml/min, with a gradient from 0 to 30% B in 5 min, 100% B for 4 min to wash the column, and a re-equilibration for 4 min. The retention time of the product was 3.6 min. Detection with a Shimadzu model RF535 fluorescence monitor was at 330 nm (excitation) and 430 (emission).

[3] = Human immunodeficiency virus 1, MT2, 48 h, read-out: IC90
[4] = read-out: HPLC K1; Table 2d; class symbols
[5] = Table 2d; class symbols; read-out: HPLC K1

Row | Compound | IC90 [1, 3] [µg/mL] | Ki [2, 4] [nM] | IC90 [1] | Ki [2, 5] [nM]
1 | CC(=O)Oc1cccc(CN2C(=O)N(Cc3cccc(OC(C)=O)c3)C(Cc3ccccc3)C(O)C(O)C2Cc2ccccc2)c1 (stereo not shown) [10F] | < 10 | 10 to 1000 |  | 
2 | NC(=O)c1cccc(CN2C(=O)N(Cc3cccc(C(N)=O)c3)C(Cc3ccccc3)C(O)C(O)C2Cc2ccccc2)c1 (stereo not shown) [10G] | < 10 | < 10 |  | 
3 | NC(=O)COc1cccc(CN2C(=O)N(Cc3cccc(OCC(N)=O)c3)C(Cc3ccccc3)C(O)C(O)C2Cc2ccccc2)c1 (stereo not shown) [10H] |  |  | +++ (+++=<10 μg/mL) | < 10
4 | O=C1NC(Cc2ccccc2)C(O)C(O)C(Cc2ccccc2)N1Cc1cccc(O)c1 (stereo not shown) [10I] | < 10 | < 10 |  | 
5 | Cc1cccc(CN2C(=O)N(Cc3cccc(O)c3)C(Cc3ccccc3)C(O)C(O)C2Cc2ccccc2)c1 (stereo not shown) [10J] |  |  | +++ (+++=<10 μg/mL) | < 10
6 | CC(=O)Oc1ccc(CN2C(=O)N(Cc3ccc(OC(C)=O)cc3)C(Cc3ccccc3)C(O)C(O)C2Cc2ccccc2)cc1 (stereo not shown) [10L] | < 10 | 10 to 1000 |  | 
7 | NNC(=O)c1ccc(CN2C(=O)N(Cc3cccc(C(=O)NN)c3)C(Cc3ccccc3)C(O)C(O)C2Cc2ccccc2)cc1 (stereo not shown) [10N] |  |  | +++ (+++=<10 μg/mL) | < 10
8 | O=C1N(Cc2cccc(O)c2)C(Cc2ccccc2)C(O)C(O)C(Cc2ccccc2)N1Cc1ccccn1 (stereo not shown) [10Q] | < 10 | 10 to 1000 |  | 
9 | O=C1N(Cc2cccc(OCC(O)CO)c2)C(Cc2ccccc2)C(O)C(O)C(Cc2ccccc2)N1Cc1cccc(OCC(O)CO)c1 (stereo not shown) [10T] |  |  | +++ (+++=<10 μg/mL) | < 10
10 | CCOC(=O)c1cccc(CN2C(=O)N(Cc3cccc(C(=O)OCC)c3)C(Cc3ccccc3)C(O)C(O)C2Cc2ccccc2)c1 (stereo not shown) [10W] |  |  | + (+=>100 μg/mL) | < 10
11 | O=C1N(Cc2cccc(OCCO)c2)C(Cc2ccccc2)C(O)C(O)C(Cc2ccccc2)N1Cc1cccc(OCCO)c1 (stereo not shown) [10Y] | < 10 | < 10 |  | 
12 | O=C1N(Cc2ccc(CO)cc2)C(Cc2ccccc2)C(O)C(O)C(Cc2ccccc2)N1Cc1ccc(CO)cc1 (stereo not shown) [10Z] |  | > 1000 | ++ (++=10 to 100 μg/mL) | 
13 | CNC(=O)c1cccc(CN2C(=O)N(Cc3cccc(C(=O)NC)c3)C(Cc3ccccc3)C(O)C(O)C2Cc2ccccc2)c1 (stereo not shown) [11H] | < 10 | < 10 |  | 
14 | O=C1N(Cc2cccc(C(O)CO)c2)C(Cc2ccccc2)C(O)C(O)C(Cc2ccccc2)N1Cc1cccc(C(O)CO)c1 (stereo not shown) [11K] | < 10 | < 10 |  | 
15 | O=C1N(Cc2ccc(C(O)CO)cc2)C(Cc2ccccc2)C(O)C(O)C(Cc2ccccc2)N1Cc1ccc(C(O)CO)cc1 (stereo not shown) [11L] | < 10 | < 10 |  | 
16 | O=C1N(Cc2cccc(OCc3ccccc3)c2)C(Cc2ccccc2)C(O)C(O)C(Cc2ccccc2)N1Cc1cccc([N+](=O)[O-])c1 (stereo not shown) [11P] | < 10 | < 10 |  | 
17 | CN(C)C(=O)c1cccc(CN2C(=O)N(Cc3cccc(C(=O)N(C)C)c3)C(Cc3ccccc3)C(O)C(O)C2Cc2ccccc2)c1 (stereo not shown) [11S] |  |  | +++ (+++=<10 μg/mL) | 10 to 1000

— patent publication USRE37781E1, “Substituted cyclic carbonyls and derivatives thereof useful as retroviral protease inhibitors” (DuPont Pharmaceuticals Company, priority 1991, dated 2002)
